We go through eight compounds from patent publication US7427625B2, “Substituted thiatriazaacenaphthylene-6-carbonitrile kinase inhibitors” (Janssen Pharmaceutica, N.V., priority 2006, dated 2008).

Usually IC50 stands for the concentration at which inhibition is half-maximal. For orientation: inhibition means the change of the read-out against control, counted positive when it falls.

One assay deals with T1, EGFR (Homo sapiens, UniProt P00533).
T1 construct: The intracellular portion of EGFR started at nucleotide 2189 (corresponding to amino acid 667) and ended at the termination codon; made in house; host or cells: Sf9 insect cells (baculovirus)
T1 sequence (P00533 669-1210 limits assumed): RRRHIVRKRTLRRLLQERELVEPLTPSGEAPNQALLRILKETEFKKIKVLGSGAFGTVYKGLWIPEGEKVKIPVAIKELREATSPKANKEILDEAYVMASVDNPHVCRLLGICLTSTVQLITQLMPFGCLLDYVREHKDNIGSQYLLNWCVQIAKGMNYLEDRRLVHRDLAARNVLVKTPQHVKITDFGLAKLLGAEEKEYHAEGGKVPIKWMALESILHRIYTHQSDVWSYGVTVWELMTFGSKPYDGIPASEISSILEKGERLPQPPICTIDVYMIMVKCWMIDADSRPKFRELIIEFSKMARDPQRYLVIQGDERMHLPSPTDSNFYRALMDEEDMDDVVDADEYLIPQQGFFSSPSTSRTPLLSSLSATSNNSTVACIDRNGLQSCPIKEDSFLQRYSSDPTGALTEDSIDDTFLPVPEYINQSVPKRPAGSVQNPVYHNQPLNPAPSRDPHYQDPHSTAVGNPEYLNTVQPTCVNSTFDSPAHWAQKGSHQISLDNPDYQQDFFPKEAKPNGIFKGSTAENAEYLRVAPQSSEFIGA
In words: EGFR Kinase Assay. As to conditions: for inhibition at 2 µM: test concentration of 2 μM, read-out: EGFR percent inhibition. In kind it is biochemical. An excerpt: The EGFR kinase used was a fusion of Glutathione-S-Transferase (GST) and a PCR amplified intracellular portion of EGFR (NM_005228). The intracellular portion of EGFR started at nucleotide 2189 (corresponding to amino acid 667) and ended at the termination codon. The portion was PCR amplified with primers that added the lambda attB sequences to each end, recombined into an entry vector, then into a GST destination vector (as described in Gateway Technologies Manual by Invitrogen Corporation, Carlsbad, Calif.).
The destination vector was recombined in the DH10BAC strain of bacteria to produce a bacmid. The bacmid was transfected into Sf 9 cells and the supernatant containing the baculovirus was collected. The GSTEGFR protein was purified using large cultures of Sf 9 cells infected with stock virus. After an appropriate period of time, the cells were collected and lysed. The GSTEGFR was then purified from the lysate on Glutathione-Sepharose columns (as described by Amersham Biosciences, Buckinghamshire, United Kingdom).
The EGFR substrate was prepared by biotinylating polyGluTyr (128 mg) (Sigma, St. Louis, Mo.) in a 1×PBS buffer incubated together with a 12-fold molar excess of Sulfo-NHS-LC-Biotin on ice for at least 2 hrs. The free biotin was separated from the biotinylated polyGluTyr on a gel filtration column.
A mixture of a 10× kinase buffer (500 mM Tris at pH 8.0, 100 mM Magnesium Chloride and 1 mM Sodium Vanadate), DTT (1 mM final from 500 mM stock), ATP (5 μM final from 10 mM stock), biotinylated polyGluTyr (10 μg/μL stock), γ-^33P ATP (10 μCi/μL stock) and water was added to each well (90 μL/well) of a Streptavidin Flashplate (Perkin Elmer, Wellesley, Mass.).
Test compound in 100% DMSO (2 μL) was added to the appropriate wells. Diluted GSTEGFR (1:300 dilution in 50 mM Tris at pH 8.0 and 0.1% bovine serum albumin) (10 μL) was added to the wells to initiate the reactions.
The plates were incubated at 30° C. for 1 hr with shaking. The reacted contents were removed and the plates were sequentially washed three times with a 1×PBS stop buffer (300 μL without Magnesium and Calcium) and 100 mM EDTA. After the final wash, the same stop buffer (200 μL) was added to the wells. The plates were then sealed and read on the TopCount scintillation counter.
Test compounds were assayed in triplicate at 16 concentrations at half-log dilutions starting at 200 uM. A maximum and minimum signal for the assay was determined on each plate. The percent inhibition of a test compound was calculated according to the formula
For a series of test concentrations, the IC50 was derived by graphing percent inhibition against the log of the concentrations tested for a given compound. For those compounds without an IC50, the percent inhibition results are shown at a test concentration of 2 μM.

The next assay addresses T2, HER-2 (Homo sapiens, UniProt P04626).
T2 construct: the nucleotides encoding amino acids 679 to 1255 of HER-2; purchased Proqinase (Freiburg, Germany)
In words: HER-2 Kinase Assay. In kind it is biochemical. As to conditions: for inhibition at 1 µM: test concentration of 1 μM, read-out: HER-2 percent inhibition. As to the method: HER-2 kinase was purified at Proqinase (Freiburg, Germany) from a construct that consisted of a fusion of GST (Glutathione-S-Transferase), HIS6-Thrombin and the nucleotides encoding amino acids 679 to 1255 of HER-2.
A mixture of a 10× kinase reaction buffer (600 mM Hepes at pH 7.5, 30 mM Magnesium Chloride, 0.03 mM Sodium Vanadate and 500 μg/mL PEG 20,000), DTT (1.2 mM final from a 10 mM stock), ATP (1 μM from a 10 mM stock), biotinylated polyGluTyr (1.5 ng/μL final from stock of 1 μg/μL prepared by Upstate Biotechnologies, Lake Placid, N.Y.), Manganese Chloride (3 mM final from a 1 M stock), γ-^33P-ATP (10 μCi/μL stock) and water (70 μL/well) was added to each well of a Streptavidin Flashplate (Cat. #SMP103, NEN, Boston, Mass.).
Test compound stock (1 μL) was added to the appropriate wells. Diluted GSTHER2 kinase (6.7 ng/μL diluted into 50 mM Tris-HCl at pH 8.0 and 0.1% bovine serum albumin) (30 μL) was added (total volume of 200 ng/well) to initiate the reactions.
The reaction plates were incubated at 30° C. for 1 hr. The reaction was terminated by aspiring the reaction mixture from the plate wells and washing the wells three times with a 1×PBS stop buffer (300 μL) and 100 mM EDTA. After the final wash, the same stop buffer (200 μL) was again added to the wells. The plates were then sealed and read on the TopCount scintillation counter.
(§1) The IC50 was derived according to the procedure described in Example 2. For those compounds without an IC50, the percent inhibition results are shown at a test concentration of 1 μM.

The next assay addresses T3, Aurora-A (Mus musculus, UniProt P97477).
T3 construct: followed by the full length protein encoding the murine Aurora-A; polyhistidine (N); made in house; host or cells: sf9 insect cells
T3 sequence (P97477 1-395): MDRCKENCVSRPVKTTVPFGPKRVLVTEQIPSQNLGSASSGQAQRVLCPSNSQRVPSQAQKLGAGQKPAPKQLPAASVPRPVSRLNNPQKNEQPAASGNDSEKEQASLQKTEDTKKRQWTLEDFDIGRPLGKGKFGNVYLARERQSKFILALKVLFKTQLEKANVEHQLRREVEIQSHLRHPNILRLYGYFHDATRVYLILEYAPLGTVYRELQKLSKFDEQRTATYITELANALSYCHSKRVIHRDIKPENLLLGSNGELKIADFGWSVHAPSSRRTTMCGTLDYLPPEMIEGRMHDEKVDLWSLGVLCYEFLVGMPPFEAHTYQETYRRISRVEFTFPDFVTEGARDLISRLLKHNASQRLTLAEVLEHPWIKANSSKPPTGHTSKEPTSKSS
In words: Aurora-A Screening Assay. In kind it is biochemical, murine. As to conditions: for inhibition at 1 µM: test concentration of 1 μM, read-out: Aurora-A percent inhibition. As to the method: (§2) A kinase reaction mixture was prepared containing 50 mM Tris-HCl at pH 8, 10 mM, MgCl20.1 mM […], 1 mM DTT, 10 μM ATP, 0.025 μM biotinylated histone-H1 peptide substrate and 0.2 μCuries per well ^33P-γ-ATP (2000-3000 Ci/mmol). 70 μL of the kinase reaction mixture was dispensed into the well of a Streptavidin FlashPlate.
(§3) Test compound stock in 100% DMSO (1 μL) was added to the wells resulting in a final concentration of 1% DMSO in the reaction with a 100 μL final reaction volume. Each enzyme was diluted in 50 mM Tris-HCl pH=8.0, 0.1% BSA and 30 μL was added to each well to initiate the reaction. The reaction was incubated for one hour at 30° C. At the end of the 1 hr incubation, the reaction was terminated by aspirating the mixture from the plate and washing the wells twice with PBS containing 100 mM EDTA. The biotinylated peptide substrate became immobilized on the Flashplate^198 and the incorporation of ^33P-γ-ATP was measured by reading the plate on a scintillation counter. Inhibition of the enzymatic activity was measured by observing a reduced amount of ^33P-γ-ATP incorporated into the immobilized peptide.
Aurora-A is a fusion protein containing a polyhistidine tag at the N terminus followed by the full length protein encoding the murine Aurora-A (Accession number GB BC014711) expressed and purified from sf9 insect cells. The assay used 400 ng of the N-terminal biotinylated peptide biotin-GRTGRRNSI-amide (Aurora-A) per well.
as §1

The next assay concerns the target T4, VEGF-R2 (Rattus norvegicus, UniProt O08775).
T4 construct: polyhistidine (N)
In words: VEGF-R2 Screening Assay. As to conditions: for inhibition at 1 µM: test concentration of 1 μM, read-out: VEGF-R2 percent inhibition. In kind it is biochemical. As to the method: as §2, §3
The VEGF-R2 enzyme is a fusion protein containing a polyhistidine tag at the N terminus followed by amino acids 786 to 1343 of the rat VEGF-R2 kinase domain (Accession number U93306). The assay used 150 ng of the N-terminal biotinylated peptide biotin-KHKKLAEGSAYEEV-amide (VEGF-R2) per well.
as §1

T4 sequence (O08775 786-1343): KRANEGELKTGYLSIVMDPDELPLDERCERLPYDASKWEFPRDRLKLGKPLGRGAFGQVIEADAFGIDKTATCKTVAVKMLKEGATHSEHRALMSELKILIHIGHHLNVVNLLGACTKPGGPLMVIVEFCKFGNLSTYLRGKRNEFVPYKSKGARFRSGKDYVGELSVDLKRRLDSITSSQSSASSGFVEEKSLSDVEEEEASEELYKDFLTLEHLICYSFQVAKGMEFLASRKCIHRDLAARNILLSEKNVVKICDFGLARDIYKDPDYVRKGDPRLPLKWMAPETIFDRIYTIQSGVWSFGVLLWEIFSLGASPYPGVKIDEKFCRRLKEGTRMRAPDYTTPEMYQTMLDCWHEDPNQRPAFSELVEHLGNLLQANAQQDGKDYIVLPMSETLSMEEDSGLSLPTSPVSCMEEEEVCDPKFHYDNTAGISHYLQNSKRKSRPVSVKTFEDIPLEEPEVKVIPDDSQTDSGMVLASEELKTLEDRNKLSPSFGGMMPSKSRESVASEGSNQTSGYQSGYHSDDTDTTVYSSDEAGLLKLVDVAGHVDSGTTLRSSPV
T2 sequence (P04626 679-1255): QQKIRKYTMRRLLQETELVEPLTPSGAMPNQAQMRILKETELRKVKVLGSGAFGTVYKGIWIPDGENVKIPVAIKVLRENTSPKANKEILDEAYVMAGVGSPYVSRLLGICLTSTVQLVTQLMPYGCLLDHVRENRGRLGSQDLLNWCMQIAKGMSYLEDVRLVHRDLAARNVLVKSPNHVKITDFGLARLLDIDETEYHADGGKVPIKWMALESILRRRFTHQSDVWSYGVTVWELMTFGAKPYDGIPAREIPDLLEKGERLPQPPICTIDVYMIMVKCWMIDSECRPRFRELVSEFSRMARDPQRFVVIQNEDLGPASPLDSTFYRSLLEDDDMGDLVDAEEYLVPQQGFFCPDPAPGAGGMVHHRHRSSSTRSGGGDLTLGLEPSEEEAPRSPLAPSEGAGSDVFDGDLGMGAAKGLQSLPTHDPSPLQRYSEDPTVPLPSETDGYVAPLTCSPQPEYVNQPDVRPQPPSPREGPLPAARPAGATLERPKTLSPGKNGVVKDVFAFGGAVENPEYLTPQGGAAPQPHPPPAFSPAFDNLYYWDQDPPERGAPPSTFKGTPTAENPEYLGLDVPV

On to `N#Cc1cnc2sc(C(=O)Nc3ccc(CN4CCCC(CO)C4)cc3)c3c2c1N(c1c(Cl)ccc2c1OCO2)C(=O)N3` (stereo not drawn) [Cpd 20, 5-(5-chloro-benzo[1,3]dioxol-4-yl)-6-cyano-4-oxo-4,5-dihydro-3H-1-thia-3,5,8-triaza-acenaphthylene-2-carboxylic acid [4-(3-hydroxymethyl-piperidin-1-ylmethyl)-phenyl]-amide], for which inhibition against EGFR was half-maximal at 910 nM (IC50). Moreover, the figures for the inhibition at 1 µM at HER-2, at Aurora-A and at VEGF-R2 were 41%, 21% and 24%, respectively.
For `N#Cc1cnc2sc(C(=O)N3CCCC(CO)C3)c3c2c1N(c1c(Cl)ccc2c1OCO2)C(=O)N3` (stereo not drawn) [Cpd 21, 5-(5-chloro-benzo[1,3]dioxol-4-yl)-2-(3-hydroxymethyl-piperidine-1-carbonyl)-4-oxo-4,5-dihydro-3H-1-thia-3,5,8-triaza-acenaphthylene-6-carbonitrile], the inhibition at 2 µM at EGFR amounted to 32%. Moreover, the values for the inhibition at 1 µM at HER-2 and at Aurora-A were 13% and 3%, respectively. Moreover, the IC50 against VEGF-R2 is more than 100000 nM.
`N#Cc1cnc2sc(C(=O)Nc3ccc(CN4CCC(CO)CC4)cc3)c3c2c1N(c1c(Cl)ccc2c1OCO2)C(=O)N3` [Cpd 22, 5-(5-chloro-benzo[1,3]dioxol-4-yl)-6-cyano-4-oxo-4,5-dihydro-3H-1-thia-3,5,8-triaza-acenaphthylene-2-carboxylic acid [4-(4-hydroxymethyl-piperidin-1-ylmethyl)-phenyl]-amide]: the IC50 was 567 nM on EGFR and more than 100000 nM on VEGF-R2. Moreover, the figures for the inhibition at 1 µM at HER-2 and at Aurora-A were 48% and 15%, respectively.
With `N#Cc1cnc2sc(C(=O)Nc3ccc(CN4CCC(O)CC4)cc3)c3c2c1N(c1c(Cl)ccc2c1OCO2)C(=O)N3` [Cpd 23, 5-(5-chloro-benzo[1,3]dioxol-4-yl)-6-cyano-4-oxo-4,5-dihydro-3H-1-thia-3,5,8-triaza-acenaphthylene-2-carboxylic acid [4-(4-hydroxy-piperidin-1-ylmethyl)-phenyl]-amide], the IC50 on EGFR was determined as 598 nM. Further, the inhibition at 1 µM is 44% at HER-2, 16% on Aurora-A and 28% at VEGF-R2.
As to `CC1COCC(C)N1Cc1ccc(NC(=O)c2sc3ncc(C#N)c4c3c2NC(=O)N4c2c(Cl)ccc3c2OCO3)cc1` (stereo not drawn) [Cpd 24, 5-(5-chloro-benzo[1,3]dioxol-4-yl)-6-cyano-4-oxo-4,5-dihydro-3H-1-thia-3,5,8-triaza-acenaphthylene-2-carboxylic acid [4-(3,5-dimethyl-morpholin-4-ylmethyl)-phenyl]-amide], the inhibition at 2 µM at EGFR was found to be 24%. Also, the inhibition at 1 µM stood at 12% on HER-2, 7% on Aurora-A and 14% at VEGF-R2.
For `C[C@@H]1CN(Cc2ccc(NC(=O)c3sc4ncc(C#N)c5c4c3NC(=O)N5c3c(Cl)ccc4c3OCO4)cc2)C[C@H](C)O1` [Cpd 25, 5-(5-chloro-benzo[1,3]dioxol-4-yl)-6-cyano-4-oxo-4,5-dihydro-3H-1-thia-3,5,8-triaza-acenaphthylene-2-carboxylic acid [4-(2,6-cis-dimethyl-morpholin-4-ylmethyl)-phenyl]-amide], on EGFR, the inhibition at 2 µM is 24%. Also, the figures for the inhibition at 1 µM on HER-2, on Aurora-A and at VEGF-R2 were 3%, 18% and 0%, respectively.
Consider `N#Cc1cnc2sc(C(=O)N3CCCC(F)C3)c3c2c1N(c1c(Cl)ccc2c1OCO2)C(=O)N3` (stereo not drawn) [Cpd 43, 5-(5-chloro-benzo[1,3]dioxol-4-yl)-2-(3-fluoro-piperidine-1-carbonyl)-4-oxo-4,5-dihydro-3H-1-thia-3,5,8-triaza-acenaphthylene-6-carbonitrile], for which the values for the IC50 against HER-2, against Aurora-A and against VEGF-R2 were 10600 nM, more than 10000 nM and approximately 100000 nM, respectively.
In the case of `N#Cc1cnc2sc(C(=O)Nc3ccc(CN4CCCC(F)C4)cc3)c3c2c1N(c1c(Cl)ccc2c1OCO2)C(=O)N3` (stereo not drawn) [Cpd 44, 5-(5-chloro-benzo[1,3]dioxol-4-yl)-6-cyano-4-oxo-4,5-dihydro-3H-1-thia-3,5,8-triaza-acenaphthylene-2-carboxylic acid [4-(3-fluoro-piperidin-1-ylmethyl)-phenyl]-amide], the half-maximal inhibitory concentration (IC50) is 1100 nM at HER-2, 1100 nM against Aurora-A and more than 10000 nM at VEGF-R2.
